pIC50: −log10 of the molar value. A value given as a limit tells only on which side of the number the result lay.

For one experiment, the target named is T1, Recombinant human cathepsin A (Homo sapiens, UniProt P10619).
T1 construct: Recombinant human cathepsin A (residues 29-480, with a C-terminal 10-His tag); 10-His (C); purchased R&D Systems 1049-SE
T1 sequence (P10619 29-312 limits assumed): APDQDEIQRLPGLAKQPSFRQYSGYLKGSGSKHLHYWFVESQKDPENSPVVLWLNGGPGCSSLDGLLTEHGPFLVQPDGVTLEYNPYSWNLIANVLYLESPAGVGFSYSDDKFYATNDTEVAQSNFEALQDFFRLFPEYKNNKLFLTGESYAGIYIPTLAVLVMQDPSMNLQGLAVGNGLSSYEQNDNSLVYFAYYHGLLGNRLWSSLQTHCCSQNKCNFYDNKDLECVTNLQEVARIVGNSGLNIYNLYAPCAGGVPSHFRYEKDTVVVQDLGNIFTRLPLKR
T1 sequence (P10619 327-480 limits assumed): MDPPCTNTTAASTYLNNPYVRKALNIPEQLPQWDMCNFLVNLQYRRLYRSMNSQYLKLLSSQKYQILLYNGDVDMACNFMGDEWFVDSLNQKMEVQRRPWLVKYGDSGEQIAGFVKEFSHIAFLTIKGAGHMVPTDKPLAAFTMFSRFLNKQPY
Put plainly: Cathepsin A inhibitory activity. Type of experiment: biochemical. The settings on record: pharmacological test "Cathepsin A inhibitory activity"; IC50 given as class A/B/C; read-out: Activity (2): Cathepsin A inhibitory activity, IC50 class. In outline: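 Read-out was microfluidic separation of cleaved vs. uncleaved Bodipy FL-bradykinin (2 μM), giving turnover, % inhibition and IC50. Compound and 833 ng/ml enzyme met for 15 min RT in pH 5.5 MES/DTT before substrate (15 min RT). The 29-480 His-tagged human enzyme was first activated by cathepsin L, then E-64 (10 μM).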
With `COc1ccc([C@H](CC(=O)O)NC(=O)c2cc(O)n(-c3cccc(Cl)c3)n2)cn1` [Example 269], the pIC50 – broadly, the IC50 on a negative log10 scale, so that one unit is a factor of ten – is 4.52 to 6.00.
The same measure, in the same setting: for `O=C(O)C[C@H](NC(=O)c1cc(O)n(-c2cccc(Cl)c2)n1)c1c(F)cccc1F` [Example 265] the value was 6.00 to 7.00; for `COc1ccccc1[C@@H](NC(=O)c1cc(O)n(-c2ccccc2F)n1)[C@@H](O)C(=O)O` [Example 240], 4.52 to 6.00; for `O=C(O)CC(NC(=O)c1cc(O)n(-c2cccc(Cl)c2)n1)c1cccc(Cl)c1Cl` (stereo not shown) [Example 257], 6.00 to 7.00.
On the same count and under the same terms, for `COc1cccc([C@H](CC(=O)O)NC(=O)c2cc(O)n(-c3ccccc3)n2)c1` [Example 165] the value was 4.52 to 6.00.
Same read-out and setting: for `O=C(O)C[C@@H](NC(=O)c1cc(O)n(-c2ccccc2Cl)n1)c1ccc(-c2ccc(F)cc2)cc1` [Example 149] the value was over 7.00; for `O=C(O)CC(NC(=O)c1cc(O)n(-c2ccccc2)n1)c1cccc(Oc2ccc(Cl)cc2)c1` (stereo not shown) [Example 173], 4.52 to 6.00.
Regarding `Cc1cccc([C@H](CC(=O)O)NC(=O)c2cc(O)n(-c3cccc(Cl)c3)n2)c1` [Example 258], the pIC50 is 6.00 to 7.00.
The same measure, in the same setting: for `O=C(O)C[C@H](NC(=O)c1cc(O)n(-c2ccccc2Cl)n1)c1cccnc1` [Example 145] the value was 6.00 to 7.00.

The same experiment, now with this note: read-out: Activity (2): Cathepsin A inhibitory activity (IC50 class).
As for `Cc1ccccc1[C@H](CC(=O)O)NC(=O)c1cc(OC(=O)N2CCCCC2)n(-c2ccccc2F)n1` [Example 619], the negative-log IC50 (pIC50) was over 7.00.
For the compound `Cc1ccccc1[C@H](CC(=O)O)NC(=O)c1cc(OCC2CCC2)n(-c2ccccc2F)n1` [Example 649], the pIC50 was over 7.00.
The same measure, in the same setting: for `COc1cc(C(=O)NC(CC(=O)O)c2ccc(-c3ccc(F)cc3)cc2)nn1-c1ccccc1` (stereo not shown) [Example 544] the value was 4.52 to 6.00; for `COc1ccccc1[C@H](CC(=O)O)NC(=O)c1cc(OC)n(-c2ccccc2F)n1` [Example 667], 6.00 to 7.00; for `Cc1nc(COc2cc(C(=O)N[C@@H](CC(=O)O)c3ccccc3C)nn2-c2ccccc2F)cs1` [Example 646], over 7.00.
`Cc1cc(COc2cc(C(=O)N[C@@H](CC(=O)O)c3ccccc3C)nn2-c2ccccc2F)no1` [Example 657]: the pIC50 was over 7.00.
On the same count and under the same terms, for `Cc1ccccc1[C@H](CC(=O)O)NC(=O)c1cc(OC2CCCC2)n(-c2ccccc2F)n1` [Example 626] the value was over 7.00; for `O=C(O)CC(NC(=O)c1cc(O)n(-c2ccccc2Cl)n1)c1ccc(-c2ccc(C(F)(F)F)cc2)cc1` (stereo not shown) [Example 581], 4.52 to 6.00.
Still for that read-out and setting: for `Cc1ccccc1[C@H](CC(=O)O)NC(=O)c1cc(OCC(C)(O)C(C)C)n(-c2ccccc2F)n1` (stereo partly drawn) [Example 770, (S)-3-{[1-(2-Fluoro-phenyl)-5-(2-hydroxy-2,3-dimethyl-butoxy)-1H-pyrazole-3-carbonyl]-amino}-3-o-tolyl-propionic acid] the value was over 7.00; for `COc1ccc(C(F)(F)F)cc1C(CC(=O)O)NC(=O)c1cc(O)n(-c2ccccc2)n1` (stereo not shown) [Example 548, 3-[(5-Hydroxy-1-phenyl-1H-pyrazole-3-carbonyl)-amino]-3-(2-methoxy-5-trifluoromethyl-phenyl)-propionic acid], 4.52 to 6.00.
On to `COc1ccc(C(CC(=O)O)NC(=O)c2cc(OCC3CC3)n(-c3ccccc3F)n2)c(Cl)c1` (stereo not shown) [Example 705], for which the pIC50 was over 7.00.
The same measure, in the same setting: for `CC(C)(C)[C@](C)(O)COc1cc(C(=O)N[C@@H](CC(=O)O)c2ccccc2Cl)nn1-c1ccccc1F` [Example 789, (S)-3-(2-Chloro-phenyl)-3-{[1-(2-fluoro-phenyl)-5-((S)-2-hydroxy-2,3,3-trimethyl-butoxy)-1H-pyrazole-3-carbonyl]-amino}-propionic acid] the value was over 7.00.
`Cc1ccc([C@H](CC(=O)O)NC(=O)c2cc(OCC(=O)C(C)(C)C)n(-c3ccccc3F)n2)cc1` [Example 791, (S)-3-{[5-(3,3-Dimethyl-2-oxo-butoxy)-1-(2-fluoro-phenyl)-1H-pyrazole-3-carbonyl]-amino}-3-p-tolyl-propionic acid]: the negative logarithm of the IC50 (pIC50) was over 7.00.

The same experiment, now with this note: read-out: Activity (2): Cathepsin A inhibitory activity, IC50 class.
Turning to `O=C(O)C[C@H](NC(=O)c1cc(O)n(-c2ccccc2)n1)c1ccccc1F` [Example 96], the pIC50 was 6.00 to 7.00.
Same read-out and setting: for `CCCCC(CC(=O)O)NC(=O)c1cc(O)n(-c2ccccc2)n1` (stereo not shown) [Example 14] the value was 6.00 to 7.00; for `CCc1ccc(C(CC(=O)O)NC(=O)c2cc(O)n(-c3ccccc3)n2)cc1` (stereo not shown) [Example 22], 6.00 to 7.00; for `CC(C)(C)C(=O)COc1cc(C(=O)N[C@@H](CC(=O)O)c2cccc(Cl)c2Cl)nn1-c1ccccc1F` [Example 839, (S)-3-(2,3-Dichloro-phenyl)-3-{[5-(3,3-dimethyl-2-oxo-butoxy)-1-(2-fluoro-phenyl)-1H-pyrazole-3-carbonyl]-amino}-propionic acid], over 7.00.
`COc1ccc(C(CC(=O)O)NC(=O)c2cc(O)n(-c3cc(C)ccc3C)n2)cc1` (stereo not shown) [Example 27]: the pIC50 is 4.52 to 6.00.
For `O=C(O)CC(NC(=O)c1cc(O)n(-c2ccc(Cl)cc2)n1)c1ccc(Cl)cc1F` (stereo not shown) [Example 286], the pIC50 was 4.52 to 6.00.
On the same count and under the same terms, for `O=C(O)CC(NC(=O)c1cc(O)n(-c2ccccc2Cl)n1)c1ccc(Oc2ccccc2)cc1` (stereo not shown) [Example 113] the value was 6.00 to 7.00.
The same measure, in the same setting: for `O=C(O)CC(NC(=O)c1cc(O)n(-c2ccccc2F)n1)c1ccc(-n2ccnc2)cc1` (stereo not shown) [Example 127] the value was 4.52 to 6.00; for `Cc1ccc(C)c(-n2nc(C(=O)NC(CC(=O)O)c3ccccc3Cl)cc2O)c1` (stereo not shown) [Example 39], 4.52 to 6.00; for `O=C(O)C[C@H](NC(=O)c1cc(O)n(-c2ccccc2)n1)c1ccccc1C(F)(F)F` [Example 97], 6.00 to 7.00.
The same measure, in the same setting: for `COc1ccc(C(CC(=O)O)NC(=O)c2cc(O)n(-c3ccccc3)n2)cc1OC` (stereo not shown) [Example 11] the value was 4.52 to 6.00.
As for `CCc1ccc(C(CC(=O)O)NC(=O)c2cc(O)n(-c3cccc(F)c3)n2)cc1` (stereo not shown) [Example 324], the pIC50 is 6.00 to 7.00.
Same read-out and setting: for `COc1cccc([C@H](CC(=O)O)NC(=O)c2cc(O)n(-c3ccc(Cl)cc3)n2)c1OC` [Example 283] the value was 6.00 to 7.00.
Still for that read-out and setting: for `O=C(O)C[C@H](NC(=O)c1cc(O)n(-c2ccccc2Cl)n1)c1ccc(Cl)cc1` [Example 109] the value was 6.00 to 7.00.
Still for that read-out and setting: for `Cc1cccc([C@H](CC(=O)O)NC(=O)c2cc(O)n(-c3ccccc3)n2)c1` [Example 376] the value was 6.00 to 7.00.
For `O=C(O)CC(NC(=O)c1cc(O)n(-c2ccc(Cl)cc2)n1)c1cccc(C(F)(F)F)c1Cl` (stereo not shown) [Example 289], the negative logarithm of the IC50 (pIC50) is 6.00 to 7.00.
For the compound `O=C(O)CC(NC(=O)c1cc(O)n(-c2cccc(F)c2)n1)c1cccc(C(F)(F)F)c1Cl` (stereo not shown) [Example 323], the pIC50 is 6.00 to 7.00.

Staying with this experiment, now noted: recombinant human cathepsin A 833 ng/ml, Bodipy FL-labeled bradykinin 2 μM, pH 5.5; read-out: CATH-A IC50.
`O=C(O)C[C@H](NC(=O)c1cc(O)n(-c2ccc(F)cc2)n1)c1ccccc1Cl` [Example 528, (S)-3-(2-Chloro-phenyl)-3-{[1-(4-fluoro-phenyl)-5-hydroxy-1H-pyrazole-3-carbonyl]-amino}-propionic acid]: the pIC50 is 6.38.
Regarding `COc1ccc(C(F)(F)F)cc1C(CC(=O)O)NC(=O)c1cc(O)n(-c2ccccc2)n1` (stereo not shown) [Example 548, 3-[(5-Hydroxy-1-phenyl-1H-pyrazole-3-carbonyl)-amino]-3-(2-methoxy-5-trifluoromethyl-phenyl)-propionic acid], the pIC50 is 5.11.
Same read-out and setting: for `O=C(O)CC(NC(=O)c1cc(O)n(-c2ccc(F)cc2F)n1)c1cc(F)ccc1C(F)(F)F` (stereo not shown) [Example 452, 3-{[1-(2,4-Difluoro-phenyl)-5-hydroxy-1H-pyrazole-3-carbonyl]-amino}-3-(5-fluoro-2-trifluoromethyl-phenyl)-propionic acid] the value was 6.86.

The experiment is the same for the next values; noted with them: recombinant human cathepsin A; read-out: Activity (2): Cathepsin A inhibitory activity, IC50 class.
With `Cc1cc(F)ccc1C(CC(=O)O)NC(=O)c1cc(O)n(-c2cccc(Cl)c2)n1` (stereo not shown) [Example 420], the pIC50 was 6.00 to 7.00.
Consider `COc1ccc([C@H](CC(=O)O)NC(=O)c2cc(O)n(-c3ccc(Cl)cc3)n2)cc1` [Example 423], for which the pIC50 was 4.52 to 6.00.
As to `O=C(O)C[C@H](NC(=O)c1cc(O)n(-c2ccc(F)cc2)n1)c1ccccc1Cl` [Example 528, (S)-3-(2-Chloro-phenyl)-3-{[1-(4-fluoro-phenyl)-5-hydroxy-1H-pyrazole-3-carbonyl]-amino}-propionic acid], the pIC50 was 6.00 to 7.00.
Consider `O=C(O)CC(NC(=O)c1cc(O)n(-c2cccc(F)c2)n1)c1cccc2c1OC(F)(F)O2` (stereo not shown) [Example 484], for which the pIC50 is 6.00 to 7.00.
On the same count and under the same terms, for `COc1cc(C(=O)N[C@@H](CC(=O)NC(C)(C)C)c2ccccc2C)nn1-c1ccccc1F` [Example 922, 1-(2-Fluoro-phenyl)-5-methoxy-1H-pyrazole-3-carboxylic acid ((S)-2-tert-butylcarbamoyl-1-o-tolyl-ethyl)-amide] the value was 4.52 to 6.00.
Still for that read-out and setting: for `O=C(O)CC(NC(=O)c1cc(O)n(-c2cccc(F)c2)n1)c1cc(F)ccc1C(F)(F)F` (stereo not shown) [Example 486] the value was 6.00 to 7.00; for `COc1ccc([C@H](CC(=O)O)NC(=O)c2cc(O)n(-c3cccc(Cl)c3)n2)cc1` [Example 409], 4.52 to 6.00; for `CCC(C)(C)NC(=O)C[C@H](NC(=O)c1cc(OC)n(-c2ccccc2F)n1)c1ccccc1C` [Example 917, 1-(2-Fluoro-phenyl)-5-methoxy-1H-pyrazole-3-carboxylic acid [(S)-2-(1,1-dimethyl-propylcarbamoyl)-1-o-tolyl-ethyl]-amide], 4.52 to 6.00.
On to `Cc1ccccc1-n1nc(C(=O)NC(CC(=O)O)c2ccc(-c3ccc(F)cc3)cc2)cc1O` (stereo not shown) [Example 536], for which the negative logarithm of the IC50 (pIC50) is over 7.00.
The same measure, in the same setting: for `O=C(O)CC(NC(=O)c1cc(O)n(-c2ccc(F)cc2F)n1)c1cc(F)ccc1C(F)(F)F` (stereo not shown) [Example 452, 3-{[1-(2,4-Difluoro-phenyl)-5-hydroxy-1H-pyrazole-3-carbonyl]-amino}-3-(5-fluoro-2-trifluoromethyl-phenyl)-propionic acid] the value was 6.00 to 7.00.

The values above are taken from patent publication US8664257B2, “Oxygen-substituted 3-heteroaroylamino-propionic acid derivatives and their use as pharmaceuticals” (Sanofi, priority 2010, dated 2014).
